Columns and labels:
[1] = MTT cytotoxicity assay, NB1RGB; assay type: cell-based, human; settings: human, NB1RGB normal fibroblast cells; NB1RGB normal fibroblast, 48 h, MTT
Description: (§1) The cytotoxic activity of natural products against mammalian cells is an important point in the search for active compounds with biological activity. […] In order to confirm the selective and potent anti-trypanosomal activity of ML-2-2 and ML-2-3, we examined their cytotoxicity in a panel of human cell lines including two human fibroblastic and 8 human cancer-derived cell lines. Cells were seeded in 96-well microplates and incubated with ML-2-2 and ML-2-3 for 48 h at 37° C. in a 5% CO2 humidified incubator. The viabilities of cells were determined with the MTT (3-(4,5-dimethylthiazol-2-yl)-2-5-diphenyltetrazolium bromide) assay. The selectivity index (SI) was determined using the following equation: IC50 against human cells/IC50 against T. brucei. The IC50 values of ML-2-3 were higher than those of ML-2-2 in all the cell lines examined. […] The SI of ML-2-2 indicates values below 1.00 in most cell lines. On the other hand, SI values of ML-2-3 were much higher than those of ML-2-2 in all tested cell lines.

[2] = tested on: NB1RGB (normal fibroblast); experiment: MTT cytotoxicity assay, NB1RGB; assay type: cell-based, human; settings: IC50 against NB1RGB / IC50 against T. brucei
Description: as §1

[3] = MTT cytotoxicity assay, LoVo; assay type: cell-based, human; settings: human, LoVo colon cancer cells; LoVo colon cancer, 48 h, MTT
Description: as §1

LoVo (colon cancer) = experiment: MTT cytotoxicity assay, LoVo; assay type: cell-based, human; settings: IC50 against LoVo / IC50 against T. brucei
Description: as §1

Trypanosoma cells [4] = experiment: Immunohistochemistry / immuno-fluorescence analysis (anti-α tubulin, DAPI); assay type: cell-based, Trypanosoma brucei brucei; settings: 15 μM (four times of IC50)
Description: (§2) The GUTat 3.1 strain of the bloodstream forms of T. b. brucei parasites was used for this study. Parasites were cultured in vitro according to the conditions established by Yabu et al, 1998.
(§3) Parasites were used when they reached a confluent concentration of 1×10^6 parasites/ml. Estimation of parasitemia was done with the Neubauer's counting chamber. Parasites were diluted to a concentration of 3×10^5 parasites/ml with HMI-9 medium and used for the various experiments.
Immunohistochemistry was performed to detect any morphological or phenotypic changes which may be caused by extracts/compounds with trypanocidal effect. The initial steps of immunohistochemistry are the same as that for the Cell Cycle Assay. After fixing the parasites at −20° C. for an hour, 500 μl of the fixed parasites were transferred to an 8-chamber slide. The parasites were incubated at 4° C. overnight to allow the fixed parasites to adhere to the slide surface. The 70% EtOH was then discarded completely. 500 μl of PBS was added to each chamber and incubated for 5 min, after which PBS was discarded. The parasites were further washed with 500 μl of PBST (0.01% Triton X 100 in PBS) for 5 min and the washing solution discarded. 500 μl of blocking reagent (3% BSA in PBST) was added to the chamber and incubated for 30 min at room temperature, after which the blocking reagent was discarded. Each chamber was filled with 500 μl Anti-α tubulin antibody and incubated for 1 hour. The antibody was then discarded and the parasites were incubated with 500 μl of DAPI (5 μg/ml DAPI in PBS) for 10 min in the dark. The wells were washed twice with 500 μl of PBS and once with 500 μl of PBST. The 8-chamber block was detached from the slide and a few drops of parmafluor mounting reagent were put on the slide. The slide was covered carefully with a cover slip. The covered slide was allowed to dry in the dark and the edge of the cover slip sealed with clear nail varnish. The slide was observed under the Olympus fluorescent microscope.

[5] = MTT cytotoxicity assay, Caco2; assay type: cell-based, human; settings: human, Caco2 colon cancer cells; Caco2 colon cancer, 48 h, MTT
Description: as §1

Caco2 (colon cancer) = experiment: MTT cytotoxicity assay, Caco2; assay type: cell-based, human; settings: IC50 against Caco2 / IC50 against T. brucei
Description: as §1

Trypanosoma cells [6] = experiment: Multi-caspase apoptosis assay (FACS); assay type: cell-based, Trypanosoma brucei brucei; settings: 5 μM
Description: as §2, §3
This assay was performed to investigate multi-caspase signals as markers of apoptosis. Seeding and incubation of parasites were as for the other experiments. After 24 hours of incubation, 10% Caspase Reagent Working Solution was added to each well. The plate was incubated for 1 h at 37° C. under 5% CO2 in air. The plate was washed twice with 1× apoptosis wash buffer, centrifuged for 5-7 min and the supernatant aspirated off. Two hundred microlitres (200 μl) working solution of Caspase 7-AAD was added to each well and mixed thoroughly to re-suspend parasites. The plate was incubated for 10 min at room temperature and subjected to FACS analysis using, the Millipore guava easyCyte 5HT FACS machine for the sorting and estimation of apoptotic parasites according to the manufacturer's instructions.

[7] = MTT cytotoxicity assay, HCT-15; assay type: cell-based, human; settings: human, HCT-15 colon cancer cells; HCT-15 colon cancer, 48 h, MTT
Description: as §1

HCT-15 (colon cancer) = experiment: MTT cytotoxicity assay, HCT-15; assay type: cell-based, human
Description: as §1

[8] = MTT cytotoxicity assay, THP-1; assay type: cell-based, human; settings: human, THP-1 leukemia cells; THP-1 leukemia, 48 h, MTT
Description: as §1

THP-1 (leukemia) = experiment: MTT cytotoxicity assay, THP-1; assay type: cell-based, human; settings: IC50 against THP-1 / IC50 against T. brucei
Description: as §1

[9] = MTT cytotoxicity assay, U937; assay type: cell-based, human; settings: human, U937 leukemia cells; U937 leukemia, 48 h, MTT
Description: as §1

U937 (leukemia) = experiment: MTT cytotoxicity assay, U937; assay type: cell-based, human; settings: IC50 against U937 / IC50 against T. brucei
Description: as §1

[10] = MTT cytotoxicity assay, Jurkat; assay type: cell-based, human; settings: human, Jurkat leukemia cells; Jurkat leukemia, 48 h, MTT
Description: as §1

Jurkat (leukemia) = experiment: MTT cytotoxicity assay, Jurkat; assay type: cell-based, human; settings: IC50 against Jurkat / IC50 against T. brucei
Description: as §1

[11] = MTT cytotoxicity assay, HF-19; assay type: cell-based, human; settings: human, HF-19 normal fibroblast cells; HF-19 normal fibroblast, 48 h, MTT
Description: as §1

[12] = tested on: HF-19 (normal fibroblast); experiment: MTT cytotoxicity assay, HF-19; assay type: cell-based, human
Description: as §1

Q: Which IC50 at 48 h [1] does the source give for `COc1cc(/C=C2/C(=O)O[C@]34C=C[C@@H]5C(C(=O)O)=CO[C@H](O[C@@H]23)[C@@H]54)ccc1O` [ML-2-3, (3aS,4aR,4a^1S,7aS,9aS,3E)-3-(4-hydroxy-3-methoxybenzylidene)-2-oxo-2,3,3a,4a,4a^1,7a-hexahydro-1,4,5-trioxadicyclopenta[a,hi]indene-7-carboxylic acid] here?
A: 37.4 µM

Q: And the “SI (selectivity index)” value [2]?
A: 9.96

Q: And the IC50 at 48 h [3]?
A: 30.4 µM

Q: What about the “SI (selectivity index)” value (LoVo (colon cancer)) of the same molecule?
A: 8.10

Q: What about the “expression of α-tubulin” value (Trypanosoma cells [4]) of the same molecule?
A: significantly suppressed

Q: What about the flagellum phenotype (Trypanosoma cells [4]) of the same molecule?
A: no flagellum phenotype

Q: And the nuclear fragmentation (Trypanosoma cells [4])?
A: clearly induced the fragmented nuclei

Q: And the IC50 at 48 h [5]?
A: 44.6 µM

Q: What about the “SI (selectivity index)” value (Caco2 (colon cancer)) of the same molecule?
A: 11.88

Q: And the late-apoptosis cells (Trypanosoma cells [6]; control cells 0.40%)?
A: 4.2%

Q: What about the mid-apoptosis cells (Trypanosoma cells [6]; control cells 1.05%) of the same molecule?
A: 7%

Q: What about the IC50 at 48 h [7] of the same molecule?
A: > 50 µM

Q: And the “cytotoxicity (in words)” value (HCT-15 (colon cancer); HCT-15, highest assayed dose)?
A: non-toxic at the highest assayed doses

Q: And the “SI (selectivity index)” value (HCT-15 (colon cancer); IC50 against HCT-15 / IC50 against T. brucei)?
A: >13.33

Q: And the IC50 at 48 h [8]?
A: 15.4 µM

Q: And the “SI (selectivity index)” value (THP-1 (leukemia))?
A: 4.11

Q: And the IC50 at 48 h [9]?
A: 12 µM

Q: What about the “SI (selectivity index)” value (U937 (leukemia)) of the same molecule?
A: 3.21

Q: And the IC50 at 48 h [10]?
A: 12.4 µM

Q: And the “SI (selectivity index)” value (Jurkat (leukemia))?
A: 3.31

Q: What about the IC50 at 48 h [11] of the same molecule?
A: > 50 µM

Q: What about the “cytotoxicity (in words)” value ([12]; HF-19, highest assayed dose) of the same molecule?
A: non-toxic at the highest assayed doses

Q: And the “SI (selectivity index)” value ([12]; IC50 against HF-19 / IC50 against T. brucei)?
A: >13.33
